Article PMC10624628 (2023)

Key:
[1] = system: SAMURI / 17-mer substrate RNA (RNA, ribozyme) GGUUGAAGGCAUGGCUCAGGGACUUCGGUCCGCUGCAGUCAGUAUGUCC/ACAUACUGAGCCUUCAA; test: Michaelis-Menten fit of kobs, alkylation of Cy5-labelled substrate, denaturing PAGE; conditions: 120 mM KCl, 5 mM NaCl, 10 mM MgCl2; 50 mM HEPES, pH 7.5, 37 °C; apparent; 32.6 ± 2.2 µM at 0.5 mM Mg2+; covalent transfer to substrate
[2] = system: SAMURI / 17-mer substrate RNA (RNA, ribozyme) GGUUGAAGGCAUGGCUCAGGGACUUCGGUCCGCUGCAGUCAGUAUGUCC/ACAUACUGAGCCUUCAA; test: inhibition of SAMURI trans-propargylation, PAGE; conditions: 120 mM KCl, 5 mM NaCl, 10 mM MgCl2; pH 7.5, 37 °C, 1 h; no competition with 10 µM ProSeDMA up to 1 mM SAM; methylates substrate at 3 mM

Km,app [1] [µM]	binding [2]	Structure (SMILES)
8.9 ± 1.9	–	C#CC[Se+](CCC(N)C(N)=O)C[C@H]1O[C@@H](n2cnc3c(N)nc(N)nc32)[C@H](O)[C@@H]1O (some centres unmarked)
–	weak	C[S+](CC[C@H](N)C(=O)O)C[C@H]1O[C@@H](n2cnc3c(N)ncnc32)[C@H](O)[C@@H]1O (some centres unmarked)
